Entries after “also recorded” stand apart in the source; their conditions may differ.

Data set [1] has as its system young male Wistar rats subjected to 90 min of MCAO (ischemic stroke). As to the kind of experiment: Experiment 1: acute stroke outcome after 90 min MCAO, intracarotid BMX-001 then subcutaneous for 7 days. Format: in vivo, rat. The protocol: (§1) The rats were fasted overnight for glucose control. On the surgery day, they were anesthetized with 5% isoflurane in 30% oxygen balanced with nitrogen. The trachea was orally intubated, and both lungs were mechanically ventilated to maintain normocapnia. Isoflurane was reduced to 1.5% during the surgical procedure. A 22-gauge needle thermistor was percutaneously inserted beneath the temporalis muscle adjacent to the skull. The pericranial temperature was maintained at 37.0° C.±0.2° C. by a surface heat lamp. The tail artery was cannulated with PE 50 tubing (BD Intramedic™ Polyethylene Tubing, Sparks, MD, USA), and arterial blood pressure was continuously monitored. 50 IU of heparin was given via arterial line to prevent intra-arterial thrombosis. Arterial blood samples were collected pre, during, and after ischemia for blood gas, glucose, and hematocrit measurements.
(§2) Ischemic stroke was induced by transiently occluding the middle cerebral artery (MCAO) as previously reported.^23,24 Briefly, a midline cervical incision was made and the right common carotid artery […] was identified. The external and internal carotid arteries were dissected. […] The internal carotid artery (ICA) was dissected distally until the origin of the pterygopalatine artery was visualized. After surgical preparation, a 10 min interval was allowed for physiologic stabilization. […] The common carotid artery was re-opened, and a timer was started as the onset of cerebral ischemia.
(§3) After 90 min of MCAO, the filament was removed and a PE-10 tube (BD Intramedic™ Polyethylene Tubing, Sparks, MD, USA) was inserted into the ICA beyond the origin of the pterygopalatine artery. The vehicle or BMX-001 (30-50 μg/kg) solution (1 μl/g for both solutions, 250 μl for the 250 g rat) was slowly infused for 5 minutes via syringe pump. At the completion of intra-carotid infusion, the PE tube was removed and the ECA stump was permanently ligated. The tail artery catheter was removed and both the neck incision and tail incision were infiltrated with bupivacaine and closed with suture. Isoflurane was discontinued. Rats were disconnected from the ventilator when they attained spontaneous respiration and kept in a recovery cage. The tracheas were extubated after recovery of the righting reflex. They were in an O2 enriched environment (30% O2) for 1 h and then returned to the home cage.
(§4) Post-stroke neurologic deficits were assessed at day 7 and 28 using a standardized neurological scoring system.^27,28 General status, simple motor deficit, complex motor deficit, and sensory deficit were evaluated, including the ability of walking on a beam and climbing on the vertical screen. The total score each animal received was the sum of all four individual scores (0-48, 0=normal and 48=the worst score).
(§5) Upon the completion of functional tests, the animals were weighed, anesthetized with isoflurane, and decapitated. The brains were harvested, frozen at −20° C. in 2-methylbutane on dry ice, and stored in a −80° C. freezer. Serial quadruplicate 20-μm-thick coronal sections were cut using a Leica cryostat and mounted on the slides at 720-μm interval over the rostral-caudal extent of the brain. The sections were dried on a slide heater at 36° C., and stained with hematoxylin and eosin. A section from each […] interval was digitized with a video camera controlled by an image analyzer (MCID, the MicroComputer Imaging Device, Imaging Research Inc, St. Catharines, Ontario, Canada). […] With the observer blinded to the experimental condition, the following regions of interest (ROI) were outlined individually using an operator-controlled cursor, including non-infarcted ipsilateral cerebral cortex, non-infarcted ipsilateral subcortex, contralateral cerebral cortex, and contralateral subcortex. The area in each ROI (mm^2) was determined by automated counting of calibrated pixels and the volume (mm^3) was computed by the known interval between sections over the rostral-caudal extent of brain. […]

In data set [2] the test system is brain tissues and vessels (vascular endothelial wall). As to the kind of experiment: Experiment 7: body weight and brain/vascular histology after intracarotid infusion. Conditions: non-stroke rats; 3 days after intracarotid infusion; H&E. The protocol: 30 μg/kg of BMX-001 (n=4), or same amount of saline (n=4) or Solu-Medrol (n=4) was given to normal Wistar rats through the carotid artery. Rats were recovered for 3 days and perfused intracardially with normal saline followed by 10% formalin. Brains were paraffin embedded, cut, and stained with hematoxylin and eosin. Vascular histologic damage was assessed.

Data set [3] concerns young male Wistar rats subjected to 90 min of MCAO (ischemic stroke). As to the kind of experiment: Experiment 3: duration of BMX-001 treatment and long-term stroke outcome in young male rats. Format: in vivo, rat. Conditions: for MAP: 10 minutes post-stroke; for Neurologic score: median±IQR; for Body weight: p=0.37; for Total infarct: measured at 28 days, p=0.46. The protocol: as §1, §2, §3, §4, §5

Setting [4] is: printed 'on day 28 in BMX-001 group'.

Turning to `CCCCOCC[n+]1ccccc1C1=C2C=CC3=[N+]2[Mn]24[n]5c1ccc5C(c1cccc[n+]1CCOCCCC)=C1C=CC(=[N+]12)C(c1cccc[n+]1CCOCCCC)=c1ccc([n]14)=C3c1cccc[n+]1CCOCCCC` [BMX-001, MnTnBuOE-2-PyP^5+], in data set [1] (5 min vs 45 min post-treatment), the “Perioperative blood pressure (FIG. 1, Panel A), in words” value was “lower blood pressure”. Moreover, in data set [1] (10 minutes post-ischemia, after 30 μg/kg intracarotid BMX-001, p=0.04 vs vehicle), the Perioperative blood pressure was 75±4 mmHg. Also, the Body weight in data set [1] (24 hours post-stroke) was 252±9 grams; in data set [1] (day 7 post-stroke, p=0.02 vs 24 hours), 279±9 grams; in data set [3] (day 7 post-stroke, printed 'on day 7 in BMX-001 group'), 276±46 grams; in data set [3] (setting [4]), 280±33 grams. Moreover, in data set [1] (body weight at 7 Days vs 24 hours, p=0.02), the “Post-stroke body weight recovery (FIG. 1, Panel B), in words” value was “promoted post-stroke body weight recovery”. In addition, in data set [1] (day 7 post-stroke), the “Infarct volume (FIG. 1, Panel D), in words” value was “significantly improved”. In data set [1] (day 7 post-stroke), the “Neurologic scores (FIG. 1, Panel C), in words” value is “significantly improved”. The compound also came in with a Subcortex infarct in data set [1] (day 7 post-stroke, p=0.02 vs vehicle) of 38.964 ±8.892 mm^3. The Total infarct is 89.097±48.424 mm^3 in data set [1] (day 7 post-stroke, p=0.04 vs vehicle); 131±66 mm^3 in data set [3] (7 days of BMX-001 group); 112±64 mm^3 in data set [3] (setting [4]). Besides, in data set [1] (day 7 post-stroke, p=0.07 vs vehicle), the Cortex infarct is on record as 49.864±42.899 mm^3. Further, the Neurologic score worked out at 4±3.5 in data set [1] (post-stroke day 7, score 0-48 (0=normal), median±IQR, p<0.01 vs vehicle); 10±8 in data set [3] (day 7 post-stroke, 7 days of BMX-001 group); 11±8 in data set [3] (day 7 post-stroke, 28 days of BMX-001 group); 6±5 in data set [3] (day 28 post-stroke, 7 days of BMX-001); 6±4 in data set [3] (day 28 post-stroke, 28 days of BMX-001). In addition, the “Brain histology / vascular histologic damage, in words” value in data set [2] is recorded as “normal; also recorded: no histologic damage”. For the same compound, the MAP in data set [3] (group BMX-001 for 7 days) is 67 ± 5 mmHg; in data set [3] (group BMX-001 for 28 days) it was 71 ± 6 mmHg. Moreover, the “Neurological deficits (FIG. 3, Panel B), in words” value in data set [3] (both day 7 and day 28 post-stroke) is recorded as “significantly improved”. Moreover, the “Infarct volume (FIG. 3, Panel C), in words” value in data set [3] (day 28) is given as “no intra-group difference”.

Source of the values: patent US20240342190A1, “METHODS FOR REDUCING ISCHEMIA-REPERFUSION INJURIES” (BioMimetix JV, LLC, priority 2023, published 2024).
